Source: US9868748B2, “Thiazolopyrrolidine inhibitors of ROR- γ” (Vitae Pharmaceuticals, Inc., priority 2013, dated 2018)
Like-named read-outs stand apart in the source and are kept apart here.

Columns and labels:
[1] = molecular target: recombinant RORγ Ligand Binding Domain (LBD) protein (Homo sapiens (Human), UniProt P51449); test: Radio-Ligand RORγ Binding Assay (Assay 1); settings: competition with 25-hydroxy [26,27-3H]-cholesterol, SPA, read-out: RORγ Binding Ki Range*
Experimental: Radio-Ligand RORγ Binding Assay (Assay 1)
Compounds of the present invention were tested for ability to bind to RORγ in a cell-free competition assay with commercially available radio-ligand (RL), 25-hydroxy [26,27-^3H]— cholesterol (PerkinElmer, Cat. # NET674250UC), for a ligand binding site on a recombinant RORγ Ligand Binding Domain (LBD) protein expressed as a 6×His-Glutathione-S-Transferase (GST) fusion (“6×His” disclosed as SEQ ID NO: 2). The assay was performed in 96-well SPA plates (PerkinElmer, Cat. #1450-401) in 50 mM HEPES buffer, pH 7.4, containing 150 mM NaCl, 5 mM MgCl2, 10% (v/v) glycerol, 2 mM CHAPS, 0.5 mM β-octylglucopyranoside and 5 mM DTT. Tested compounds were dissolved in DMSO, and semi-log (3.162×) serial dilutions of the compounds were prepared in the same solvent. Two μL of the DMSO solutions were mixed with 28 μL of 8.6 nM 25-hydroxy [26,27-^3H]— cholesterol and 50 μL of 24 nM RORγ LBD. The plate was shaken at 700 rpm for 20 min and incubated for 10 min at rt, after which 40 μL of poly-Lys YSi SPA beads (PerkinElmer, Cat. # RPNQ0010) were added to achieve 50 μg of the beads per well. The plate was incubated on an orbital shaker for 20 min and then for 10 min without agitation at rt. SPA signal for tritium beta radiation was registered on PerkinElmer Microbeta plate reader. Percent inhibition values were calculated based on the high signal obtained with DMSO control and the low signal observed with 10 μM standard RORγ inverse agonist T0901317 (SigmaAldrich, Cat. # T2320). The percent inhibition vs. concentration data were fit into a four-parameter model, and […] values were calculated from the fit as the concentrations corresponding to the inflection points on the dose-response curves. Inhibitory constants (Ki) were calculated using the following equation, where [RL] is the concentration in the assay and KD is a dissociation constant of 25-hydroxy [26,27-^3H]-cholesterol: […]

[2] = molecular target: full-length RORγt in Jurkat cells (Homo sapiens (Human), UniProt P51449); test: RORγt 5xRORE Assay in Jurkat Cells (Assay 2); type: cell-based; settings: Nanoluc luciferase reporter, 16-18 hrs
Experimental: [formula] RORγt 5xRORE Assay in Jurkat Cells (Assay 2)
Compounds of the present invention were tested for RORγ inverse agonist activity in a cell-based, transcriptional activity assay. Secreted Nanoluc® luciferase was used as a reporter for transcriptional activity of the full-length RORγt in Jurkat cells (ATCC, Cat. # TIB-152). A reporter plasmid was constructed by inserting 5 repeats of the ROR Response Element (RORE) […] (SEQ ID NO:1) into a commercially available promoterless plasmid pNL1.3[secNluc] (Promega, Cat. # N1021) using KpnI and HindIII restriction sites. The expression plasmid for RORγt was purchased (Geneocopoeia, Cat. # EX-T6988-M02). Jurkat cells (30 million cells) were transfected with 11 μg of EX-T6988-MO2 and 26 μg of the reporter plasmid in OptiMEM® media using Lipofectamine® LTX and Plus™ reagents (Life Technologies, Cat. #15338-100). After 5-6 h of incubation at 37° C./5% CO2, the cells were collected, resuspended in phenol-red free RPMI media containing 10% (v/v) delipidated FBS (Hyclone, Cat. # SH30855.03) and dispensed into 96-well clear bottom tissue culture plates (CoStar, Cat. #3603), at 80,000 cells per well. Tested compounds were added to the cells in the same media (final concentration of DMSO was 0.1% (v/v)), and the plates were incubated at 37° C./5% CO2 for 16-18 hrs. Luciferase activity in the conditioned supernatants was determined with NanoGlo® assay reagents (Promega, Cat. # N1130).

[3] = Table 9, read-out: RORγt5X IC50 Range*
[4] = Table 8, read-out: RORγt5X IC50 Range*

Chain of full-length RORγt in Jurkat cells (P51449 other isoform, or with tags, fused parts or gaps): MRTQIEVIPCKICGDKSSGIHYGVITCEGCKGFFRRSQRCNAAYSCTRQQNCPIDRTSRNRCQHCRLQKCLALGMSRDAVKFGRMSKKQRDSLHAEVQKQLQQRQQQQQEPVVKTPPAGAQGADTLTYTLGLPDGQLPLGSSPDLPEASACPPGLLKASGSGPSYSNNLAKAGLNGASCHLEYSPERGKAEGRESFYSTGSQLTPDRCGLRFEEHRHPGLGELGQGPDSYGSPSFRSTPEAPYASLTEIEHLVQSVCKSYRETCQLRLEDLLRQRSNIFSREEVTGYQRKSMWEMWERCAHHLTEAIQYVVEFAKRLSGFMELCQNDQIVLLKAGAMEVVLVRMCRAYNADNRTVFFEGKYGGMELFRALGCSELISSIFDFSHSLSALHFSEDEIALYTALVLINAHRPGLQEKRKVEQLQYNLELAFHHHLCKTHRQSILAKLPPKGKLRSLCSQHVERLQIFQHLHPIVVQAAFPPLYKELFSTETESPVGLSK
Chain of recombinant RORγ Ligand Binding Domain (LBD) protein (P51449 269-508): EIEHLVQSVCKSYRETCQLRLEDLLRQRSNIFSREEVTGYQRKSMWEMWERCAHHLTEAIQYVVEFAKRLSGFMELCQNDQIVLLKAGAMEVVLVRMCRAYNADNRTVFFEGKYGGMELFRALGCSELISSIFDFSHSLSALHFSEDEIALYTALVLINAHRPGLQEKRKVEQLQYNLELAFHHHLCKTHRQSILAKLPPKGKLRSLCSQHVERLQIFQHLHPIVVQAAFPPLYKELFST

| Ki ([1]; Table 9) [nM] | IC50 [2, 3] [nM] | Ki ([1]; Table 8) [nM] | IC50 [2, 4] [nM] | Compound |
| --- | --- | --- | --- | --- |
| < 100 | < 100 | – | – | CC(C)[C@H]1c2nc(NC(=O)Cc3ccc(S(C)(=O)=O)cc3)sc2CN1[C@H](C)c1ccc(C(F)(F)F)nc1 (single isomer, unassigned) |
| < 100 | < 100 | – | – | CCS(=O)(=O)c1ccc(CC(=O)Nc2nc3c(s2)CN(Cc2ccc(C(N)=O)cc2)[C@H]3C(C)C)cc1 |
| – | – | < 100 | < 100 | CC[C@H](C)C1c2nc(NC(=O)Cc3ccc(S(C)(=O)=O)cc3)sc2CN1Cc1ccc(C#N)c(F)c1 (stereo partly shown) [I-H2] |
| < 100 | > 1000 | – | – | CCS(=O)(=O)c1ccc(CC(=O)Nc2nc3c(s2)CN(Cc2ccc(F)cc2F)[C@H]3C(C)C)cc1 |
| < 100 | < 100 | – | – | CCS(=O)(=O)c1ccc(CNC(=O)c2nc3c(s2)CN(Cc2ccc(C(F)F)cc2)[C@H]3C(C)C)nc1 |
| – | – | < 100 | < 100 | CCS(=O)(=O)c1ccc(CC(=O)Nc2nc3c(s2)CN(Cc2ccc(C#N)c(OC)n2)[C@H]3C(C)C)cc1 [I-A51] |
| < 100 | < 100 | – | – | CCS(=O)(=O)c1ccc(CC(=O)Nc2nc3c(s2)CN(C[C@H]2CC[C@H](C(F)(F)F)CC2)[C@H]3C(C)C)nc1 (single isomer, unassigned) |
| < 100 | < 100 | – | – | CCS(=O)(=O)c1ccc(CC(=O)Nc2nc3c(s2)CN(Cc2ccc(Cl)cc2)[C@H]3C(C)C)c(C#N)c1 |
| < 100 | 100 to 1000 | – | – | CC(C)[C@H]1c2nc(C(=O)NCc3ccc(S(C)(=O)=O)cc3)sc2CN1Cc1ccc(C#N)c(F)c1 |
| < 100 | > 1000 | – | – | CCS(=O)(=O)c1ccc(CC(=O)Nc2nc3c(s2)CN(c2ncc(C(C)=O)c(C(F)(F)F)n2)[C@H]3C(C)C)cc1 |
| < 100 | > 1000 | – | – | CCS(=O)(=O)c1ccc(CC(=O)Nc2nc3c(s2)CN(Cc2cc(OC)cc(OC)c2)[C@@H]3C(C)C)cc1 |
| 100 to 1000 | > 1000 | – | – | CC1(C)c2nc(NC(=O)Cc3ccc(S(C)(=O)=O)cc3)sc2CN1c1nccc(C(F)(F)F)n1 |
| – | – | < 100 | < 100 | CCS(=O)(=O)c1ccc(CNC(=O)c2nc3c(s2)CN(Cc2ccc(OC(F)F)cc2)[C@H]3C(C)C)cc1 [I-J6] |
| 100 to 1000 | > 1000 | – | – | CCS(=O)(=O)c1ccc(CC(=O)Nc2nc3c(s2)CN(Cc2ccnc(C(F)(F)F)c2)[C@@H]3C(C)C)cc1 |
| – | – | < 100 | < 100 | CCS(=O)(=O)c1ccc(CC(=O)Nc2nc3c(s2)CN(Cc2ccc(OC(F)(F)F)cc2)[C@H]3C(C)C)cc1 [I-A16] |
| – | – | < 100 | < 100 | CC[C@H](C)[C@H]1c2nc(NC(=O)Cc3ccc(S(C)(=O)=O)cc3)sc2CN1Cc1ccc(Cl)cc1 [I-H1, N—((S)-4-((S)-sec-butyl)-5-(4-chlorobenzyl)-5,6-dihydro-4H-pyrrolo[3,4-d]thiazol-2-yl)-2-(4-(methylsulfonyl)phenyl)acetamide] |
| < 100 | 100 to 1000 | – | – | CCS(=O)(=O)c1ccc(CC(=O)Nc2nc3c(s2)CN(C[C@H]2CC[C@@](C)(C#N)CC2)[C@H]3C(C)C)nc1 (single isomer, unassigned) |
| < 100 | < 100 | – | – | CCS(=O)(=O)c1ccc(CC(=O)Nc2nc3c(s2)CN([C@@H](C)c2ccc(C#N)cn2)[C@H]3C(C)C)cc1 (single isomer, unassigned) |
| 100 to 1000 | > 1000 | – | – | CC(C)[C@H]1c2nc(NC(=O)Cc3ccc(-c4nnn[nH]4)cc3)sc2CN1Cc1ccc(Cl)cc1 |
| 100 to 1000 | > 1000 | – | – | CC(C)[C@H]1c2nc(NC(=O)Cc3ccc(S(C)(=O)=O)cc3)sc2CN1Cc1ccn(C)c(=O)c1 |
| – | – | < 100 | < 100 | CC(C)[C@H]1c2nc(NC(=O)Cc3ccc(S(=O)(=O)NC4CC4)cc3)sc2CN1Cc1ccc(Cl)cc1 [I-G1, (S)—N-(5-(4-chlorobenzyl)-4-isopropyl-5,6-dihydro-4H-pyrrolo[3,4-d]thiazol-2-yl)-2-(4-(N-cyclopropylsulfamoyl)phenyl)acetamide] |

| Ki ([1]; Table 9) [nM] | IC50 [2, 3] [nM] | Ki ([1]; Table 8) [nM] | IC50 [2, 4] [nM] | Compound |
| --- | --- | --- | --- | --- |
| 100 to 1000 | < 100 | – | – | CC[C@H]1c2nc(NC(=O)Cc3ccc(S(=O)(=O)CC)cc3)sc2CN1Cc1ncc(Cl)cn1 |
| < 100 | 100 to 1000 | – | – | CCS(=O)(=O)c1ccc(CC(=O)Nc2nc3c(s2)CN(Cc2ccc(C(=O)O)cc2)[C@H]3C(C)C)cc1 |
| < 100 | > 1000 | – | – | CCS(=O)(=O)c1ccc(CC(=O)Nc2nc3c(s2)CN(CC2CCOCC2)[C@H]3C(C)C)cc1 |
| < 100 | < 100 | – | – | CC(C)[C@H]1c2nc(NC(=O)Cc3ccc(S(N)(=O)=O)cc3)sc2CN1Cc1ccc(C(F)(F)F)cc1 |
| < 100 | < 100 | – | – | CCS(=O)(=O)c1ccc(CNC(=O)c2nc3c(s2)CN(CC2CN(C(=O)OC(C)(C)C)CCO2)[C@H]3C(C)C)cc1 (stereo partly shown) |
| < 100 | > 1000 | – | – | CCS(=O)(=O)c1ccc(CC(=O)Nc2nc3c(s2)CN(Cc2cccc(C4CC4)c2)[C@@H]3C(C)C)cc1 |
| – | – | < 100 | < 100 | CC(C)[C@H]1c2nc(NC(=O)Cc3ccc(S(C)(=O)=O)cc3)sc2CN1Cc1ccc(C#N)cc1F [I-B17] |
| – | – | < 100 | < 100 | CC(C)[C@H]1c2nc(NC(=O)Cc3ccc(S(C)(=O)=O)cc3)sc2CN1Cc1ccc(C(F)(F)F)nc1 [I-B5] |
| < 100 | > 1000 | – | – | CCS(=O)(=O)c1ccc(CC(=O)Nc2nc3c(s2)CN(C[C@H]2CC[C@@H](C(F)(F)F)N(C)C2)[C@H]3C(C)C)cc1 (relative stereo) |
| < 100 | > 1000 | – | – | CCS(=O)(=O)c1ccc(CC(=O)Nc2nc3c(s2)CN(C[C@H]2C[C@H](C#N)C2)[C@H]3C(C)C)cc1 (relative stereo) |
| < 100 | > 1000 | – | – | CCS(=O)(=O)c1ccc(CC(=O)Nc2nc3c(s2)CN(c2cnc(C(F)(F)F)cn2)[C@H]3C(C)C)cc1 |
| < 100 | > 1000 | – | – | CCc1ccc(CN2Cc3sc(NC(=O)Cc4ccc(S(C)(=O)=O)cc4)nc3[C@H]2C(C)C)cc1 |
| < 100 | < 100 | – | – | CCS(=O)(=O)c1ccc(CC(=O)Nc2nc3c(s2)CN(Cc2ccc(C#N)cc2)[C@H]3C(C)C)nc1 [drawing 230] |
| < 100 | 100 to 1000 | – | – | CCS(=O)(=O)c1ccc(CC(=O)Nc2nc3c(s2)CN(Cc2c(F)cc(C#N)cc2F)[C@H]3C(C)C)cc1 |
| < 100 | > 1000 | – | – | CCS(=O)(=O)c1ccc(CC(=O)Nc2nc3c(s2)CN([C@H](C)Cc2ccccc2)[C@@H]3C(C)C)cc1 |
| – | – | < 100 | 100 to 1000 | CC(C)[C@H]1c2nc(C(=O)NCc3ccc(S(C)(=O)=O)cc3)sc2CN1Cc1ccc(Cl)cn1 [I-K1, (S)-5-((5-chloropyridin-2-yl)methyl)-4-isopropyl-N-(4-(methylsulfonyl)benzyl)-5,6-dihydro-4H-pyrrolo[3,4-d]thiazole-2-carboxamide] |
| < 100 | 100 to 1000 | – | – | CCS(=O)(=O)c1ccc(CC(=O)Nc2nc3c(s2)CN(Cc2ccc(C(F)(F)F)cn2)[C@H]3C(C)C)nc1 |
| < 100 | 100 to 1000 | – | – | CC(C)[C@H]1c2nc(NC(=O)Cc3ccc(C(N)=O)cc3)sc2CN1Cc1ccc(Cl)cc1 |
| < 100 | 100 to 1000 | – | – | CCS(=O)(=O)c1cnc(CC(=O)Nc2nc3c(s2)CN(Cc2ccc(C(F)(F)F)cc2)[C@H]3C(C)C)nc1 |
| – | – | < 100 | > 1000 | CC(C)[C@H]1c2nc(NS(=O)(=O)c3ccc(CC(=O)O)cc3)sc2CN1Cc1ccc(Cl)cc1 [I-D1, (S)-2-(4-(N-(5-(4-chlorobenzyl)-4-isopropyl-5,6-dihydro-4H-pyrrolo[3,4-d]thiazol-2-yl)sulfamoyl)phenyl)acetic acid] |
